US20060014740A1 (priority 2003, published 2006)
Read-outs that look alike come from different tables or passages of the source.

Tests used:
[1] = system: DU-145 human prostate cancer cells; experiment: SRB cytotoxicity assay, DU-145; type: cell-based; details: Homo sapiens, DU-145, read-out: IC50 DU-145; Example 10 table; 96 h
In short: (§1)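 Antiproliferative effect was assessed by SRB assay after cells had been exposed for 96 h to a concentration series from 0 to 100 μM. Fixed, stained cells were quantified at 540 nm.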

[2] = system: TSU-Pr1 human prostate cancer cells; experiment: SRB cytotoxicity assay, TSU-Pr1; type: cell-based; details: Homo sapiens, TSU-Pr1; Example 10 table; 96 h; read-out: IC50 TSU-Pr1
In short: as §1

[3] = system: CaOv-3 human ovarian cancer cell line; experiment: SRB cytotoxicity assay, CaOv-3; type: cell-based; details: Homo sapiens, Caov-3; Table 8
Method: (§2) For in vitro cytotoxicity screening, 1000 to 5000 cells were plated into each well of 96-well plates depending on growth rate, and exposed to different concentrations of a test compound for 96 h in three to five replicates. All the compounds were dissolved in dimethyl sulfoxide at 5 to 20 mM, and diluted to desired concentrations in complete culture medium. Cell numbers at the end of the drug treatment were measured by the SRB assay (Gududuru et al., “Synthesis and Biological Evaluation of Novel Cytotoxic Phospholipids for Prostate Cancer,” Bioorg. Med. Chem. Lett. 14:4919-4923 (2004); Rubinstein et at., “Comparison of in vitro Anticancer-Drug-Screening Data Generated with a Tetrazolium Assay Versus a Protein Assay Against a Diverse Panel of Human Tumor Cell Lines,” J. Naatl, Cancer Inst. 82:1113-1118 (1990), each of which is hereby incorporated by reference in its entirety). Briefly, the cells were fixed with 10% of trichloroacetic acid, stained with 0.4% SRB, and the absorbances at 540 nm was measured using a plate reader (DYNEX Technologies, Chantilly, Va.).
(§3) In vitro cytotoxicity assay was performed by the same sulforhodamine B (SRB) assay (described above). The compounds shown in Table 8 below where tested for activity against the breast cancer and ovarian cancer cell lines.

[4] = system: SKOv-3 human ovarian cancer cell line; experiment: SRB cytotoxicity assay, SKOv-3; type: cell-based; details: Homo sapiens, SK-OV-3; Table 8
Method: as §2, §3

[5] = system: RH7777 rat hepatoma cells; experiment: SRB cytotoxicity assay, RH7777 control cell line; type: cell-based; details: for IC50: Rattus norvegicus, RH7777, Example 10 table, 0 to 100 μM for 96 h, read-out: IC50 RH7777
In short: as §1

LNCaP cells [6] = experiment: Apoptosis sandwich ELISA (DNA-histone complex), LNCaP; type: cell-based, human
Method: (§4) A sandwich ELISA (Roche, Mannheim, Germany) utilizing monoclonal antibodies specific for DNA and histones was used to quantify degree of apoptosis induced by the analogs after 72 h exposure. This assay measures DNA-histone complexes (mono- and oligonucleosomes) released into cytoplasm from the nucleus during apoptosis. RH7777 cells were employed because of nonspecific cytotoxicity of compound 4 in receptor-negative cells as well as receptor-positive prostate cancer cells.
(§5) From the LPL receptor mRNA expression studies (Table 2), it was evident that these cell lines serve as an excellent model system to explore the effects of LPL receptor. Given the structural similarity of SAPs to ceramide (and the known ability of ceramide to induce apoptosis), it was then determined whether the antiproliferative effects of thiazolidine analogs were mediated via apoptotla events. The ability of the analogs to induce apoptosis in LNCaP, PC-3, and RH7777 cells was examined using a quantitative sandwich ELISA that measures DNA-histone complex released during apoptosis. The enrichment factor calculated (as ratio of OD405 in treated and un-treated cells) provides a quantitative assessment of the degree of apoptosis induced. Initially, only two compounds (4 & 5) were used for this study. Apoptotic activity of analog (compound 4) was selective in prostate cancer cells despite nonselective cytotoxicity in RH7777 negative control cells (see Table 5 below). Analog compound 5 induced apoptosis in PC-3 and LNCaP cells, but to a lesser extent in PC-3 cells perhaps due to lower potency in this cell line.

PC-3 cells = experiment: Apoptosis sandwich ELISA (DNA-histone complex), PC-3; type: cell-based, human
Method: as §4, §5

[7] = system: human breast cancer cell line (MCF-7); experiment: SRB cytotoxicity assay, MCF-7; type: cell-based; details: Homo sapiens, MCF7, read-out: IC50 MCF-7
In short: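 Cells plated at 1000–5000 per well by growth rate and exposed to compound (0 to 100 μM) for 96 h, three to five replicates. Cell number read by sulforhodamine B: TCA fixation, 0.4% SRB staining, absorbance at 540 nm.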

[8] = system: PC-3 human prostate cancer cells; experiment: SRB cytotoxicity assay, PC-3; type: cell-based; details: Homo sapiens; Example 10 table; 96 h; read-out: IC50 PC-3
In short: as §1

LNCaP cells [9] = experiment: DNA fragmentation by agarose gel electrophoresis; type: cell-based, human; details: treated 24 to […], FIGS. 4A-B
Method: In FIG. 4B, the dose and exposure time are indicated for compound 5 as follows: lane 1, 100 bp DNA marker; lane 2, […] for 24 h; lane 3, 5 μM for 48 h; lane 4, 5 μM for 72 h; lane 5, 5 μM for 96 h; lane 6, 3 μM for 96 h; lane 7, 8 μM for 48 h; and lane 8, 8 μM for 72 h;

RH7777 cells = experiment: Apoptosis sandwich ELISA (DNA-histone complex), RH7777; type: cell-based, rat
Method: as §4, §5

[10] = system: LNCaP human prostate cancer cells; experiment: SRB cytotoxicity assay, LNCaP; type: cell-based; details: Homo sapiens, LNCaP; Example 10 table; 96 h; read-out: IC50 LNCaP
In short: as §1

[11] = system: PPC-1 human prostate cancer cells; experiment: SRB cytotoxicity assay, PPC-1; type: cell-based; details: Homo sapiens, PPC-1; Example 10 table; 96 h; read-out: IC50 PPC-1
In short: as §1

[12] = system: OVCAR-3 human ovarian cancer cell line; experiment: SRB cytotoxicity assay, OVCAR-3; type: cell-based; details: Homo sapiens, OVCAR-3; Table 8
Method: as §2, §3

[13] = Table 8, breast cancer cell line

Structure (SMILES) | IC50 [1] | IC50 [2] | IC50 [3] | IC50 [4] | IC50 [5] | Apoptosis enrichment factor (ratio of OD405 in treated and un-treated cells) (LNCaP cells [6]; 2 μM for 72 h) | Apoptosis enrichment factor (ratio of OD405 in treated and un-treated cells) (LNCaP cells [6]; 5 μM for 72 h) | Apoptosis enrichment factor (ratio of OD405 in treated and un-treated cells) (LNCaP cells [6]; 10 μM for 72 h) | Apoptosis enrichment factor (ratio of OD405 in treated and un-treated cells) (PC-3 cells; 2 μM for 72 h) | Apoptosis enrichment factor (ratio of OD405 in treated and un-treated cells) (PC-3 cells; 5 μM for 72 h) | Apoptosis enrichment factor (ratio of OD405 in treated and un-treated cells) (PC-3 cells; 10 μM for 72 h) | IC50 ([7]; Example 10 table, 96 h) | IC50 [7, 13] | IC50 [8] | DNA fragmentation (apoptosis) (LNCaP cells [9]) | IC50 [10] | IC50 [11] | IC50 [12] | other results
CCCCCCCCCCCCCCNC(=O)[C@@H]1CSC(c2ccccc2)N1.Cl (mixture of isomers) [Compound 4-HCI, (2RS, 4R)-2-Phenylthiazolidine-4-carboxylic acid tetradecylamide Hydrochloride] | 2.4 µM | 2 µM | 13.9 µM | 2.1 µM | 3.4 µM | 14.1 | 75.4 | 80.7 | 1.8 | 18.7 | 54.0 | 4.2 µM | 2.4 µM | 3 µM | induce cell apoptosis | 1.4 µM | 1.3 µM | 1.6 µM | Fold less selective against RH7777 cell line than compound 5 [5]: 8 fold; Apoptosis enrichment factor (ratio of OD405 in treated and un-treated cells) (RH7777 cells; 2 μM for 72 h): 2.6; Apoptosis enrichment factor (ratio of OD405 in treated and un-treated cells) (RH7777 cells; 5 μM for 72 h): 3.2; Apoptosis enrichment factor (ratio of OD405 in treated and un-treated cells) (RH7777 cells; 10 μM for 72 h): 2.5
CCCCCCCCCCCCCCCCCCNC(=O)[C@@H]1CSC(c2ccccc2)N1.Cl (mixture of isomers) [Compound 5-HCI, (2RS, 4R)-2-Phenylthiazolidine-4-carboxylic acid octadecylamide Hydrochloride] | 5.4 µM | 5 µM | 2.5 µM | 8.5 µM | 25.6 µM | 4.5 | 45.2 | 37.1 | 1.4 | 2.3 | 3.4 | 4.2 µM | 4.2 µM | 7.8 µM | induce cell apoptosis | 2.1 µM | 2 µM | 4.5 µM | Apoptosis enrichment factor (ratio of OD405 in treated and un-treated cells) (LNCaP cells [6]; 20 μM for 72 h): 26.1; Apoptosis enrichment factor (ratio of OD405 in treated and un-treated cells) (PC-3 cells; 20 μM for 72 h): 12.7
